In PubChem BioAssay (NCI):
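Abbreviation: GI50, concentration required for 50% inhibition of growth. TGI: concentration producing complete growth inhibition.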

Key:
Experiment in all cases: NCI anticancer screen, dose series, 384-well format
786-0 renal = test system: 786-0 renal
A498 renal = test system: A498 renal
A549 NSCLC = test system: A549 NSCLC
ACHN renal = test system: ACHN renal
BT-549 breast = test system: BT-549 breast
CAKI-1 renal = test system: CAKI-1 renal
CCRF-CEM leukemia = test system: CCRF-CEM leukemia
COLO 205 colon = test system: COLO 205 colon
DU-145 prostate = test system: DU-145 prostate
EKVX NSCLC = test system: EKVX NSCLC
HCC-2998 colon = test system: HCC-2998 colon
HCT-116 colon = test system: HCT-116 colon
HCT-15 colon = test system: HCT-15 colon
HL-60(TB) leukemia = test system: HL-60(TB) leukemia
HOP-62 NSCLC = test system: HOP-62 NSCLC
HOP-92 NSCLC = test system: HOP-92 NSCLC
HS 578T breast = test system: HS 578T breast
HT29 colon = test system: HT29 colon
IGROV1 ovarian = test system: IGROV1 ovarian
K-562 leukemia = test system: K-562 leukemia
KM12 colon = test system: KM12 colon
LOX IMVI melanoma = test system: LOX IMVI melanoma
M14 melanoma = test system: M14 melanoma
MALME-3M melanoma = test system: MALME-3M melanoma
MCF7 breast = test system: MCF7 breast
MDA-MB-231 breast = test system: MDA-MB-231 breast
MDA-MB-468 breast = test system: MDA-MB-468 breast
MOLT-4 leukemia = test system: MOLT-4 leukemia
NCI-H226 lung = test system: NCI-H226 lung
NCI-H23 lung = test system: NCI-H23 lung
NCI-H322M lung = test system: NCI-H322M lung
NCI-H522 lung = test system: NCI-H522 lung
NCI/ADR-RES ovarian = test system: NCI/ADR-RES ovarian
OVCAR-3 ovarian = test system: OVCAR-3 ovarian
OVCAR-4 ovarian = test system: OVCAR-4 ovarian
OVCAR-5 ovarian = test system: OVCAR-5 ovarian
PC-3 prostate = test system: PC-3 prostate
RPMI-8226 leukemia = test system: RPMI-8226 leukemia
RXF 393 renal = test system: RXF 393 renal
SF-268 CNS = test system: SF-268 CNS
SF-295 CNS = test system: SF-295 CNS
SF-539 CNS = test system: SF-539 CNS
SK-MEL-2 melanoma = test system: SK-MEL-2 melanoma
SK-MEL-28 melanoma = test system: SK-MEL-28 melanoma
SK-MEL-5 melanoma = test system: SK-MEL-5 melanoma
SK-OV-3 ovarian = test system: SK-OV-3 ovarian
SN12C renal = test system: SN12C renal
SNB-19 CNS = test system: SNB-19 CNS
SNB-75 CNS = test system: SNB-75 CNS
SR leukemia = test system: SR leukemia
SW-620 colon = test system: SW-620 colon
T-47D breast = test system: T-47D breast
TK-10 renal = test system: TK-10 renal
U251 glioblastoma = test system: U251 glioblastoma
UACC-257 melanoma = test system: UACC-257 melanoma
UACC-62 melanoma = test system: UACC-62 melanoma
UO-31 renal = test system: UO-31 renal

For COc1cc2c(cc1F)C(c1ccccc1Cl)=Nc1c(n[nH]c1C)N2, which GI50 ([…]-0 renal) is on record?
Its GI50 is 508 nM.

What about the TGI (786-0 renal) of the same compound?
The TGI was 11900 nM.

And the GI50 (A498 renal)?
The GI50 was 498 nM.

What about the TGI (A498 renal) of the same compound?
Its TGI is 17200 nM.

And the GI50 (A549 NSCLC)?
The GI50 was 599 nM.

What about the TGI (A549 NSCLC) of the same compound?
The TGI was 15600 nM.

And the GI50 (ACHN renal)?
Its GI50 is 1350 nM.

And the TGI (ACHN renal)?
Its TGI is 13300 nM.

What about the GI50 (BT-549 breast) of the same compound?
The GI50 was 231 nM.

What about the TGI (BT-549 breast) of the same compound?
Its TGI is 1080 nM.

What about the GI50 (CAKI-1 renal) of the same compound?
Its GI50 is 512 nM.

And the TGI (CAKI-1 renal)?
Its TGI is 4160 nM.

What about the GI50 (CCRF-CEM leukemia) of the same compound?
The GI50 was 145 nM.

What about the TGI (CCRF-CEM leukemia) of the same compound?
Its TGI is 288 nM.

What about the GI50 (COLO 205 colon) of the same compound?
The GI50 was 367 nM.

And the TGI (COLO 205 colon)?
The TGI was 12100 nM.

And the GI50 (DU-145 prostate)?
The GI50 was 2020 nM.

What about the TGI (DU-145 prostate) of the same compound?
Its TGI is 13000 nM.

What about the GI50 (EKVX NSCLC) of the same compound?
The GI50 was 597 nM.

And the TGI (EKVX NSCLC)?
The TGI was 13800 nM.

What about the GI50 (HCC-2998 colon) of the same compound?
The GI50 was 108 nM.

What about the TGI (HCC-2998 colon) of the same compound?
The TGI was 16700 nM.

What about the GI50 (HCT-116 colon) of the same compound?
The GI50 was 393 nM.

And the TGI (HCT-116 colon)?
The TGI was 15100 nM.

What about the GI50 (HCT-15 colon) of the same compound?
Its GI50 is 304 nM.

What about the TGI (HCT-15 colon) of the same compound?
Its TGI is 19500 nM.

And the GI50 (HL-60(TB) leukemia)?
The GI50 was 166 nM.

And the TGI (HL-60(TB) leukemia)?
Its TGI is 306 nM.

And the GI50 (HOP-62 NSCLC)?
The GI50 was 521 nM.

And the TGI (HOP-62 NSCLC)?
Its TGI is 14100 nM.

What about the GI50 (HOP-92 NSCLC) of the same compound?
The GI50 was 960 nM.

What about the TGI (HOP-92 NSCLC) of the same compound?
Its TGI is 8170 nM.

And the GI50 (HS 578T breast)?
The GI50 was 190 nM.

What about the TGI (HS 578T breast) of the same compound?
Its TGI is 464 nM.

And the GI50 (HT29 colon)?
Its GI50 is 313 nM.

What about the TGI (HT29 colon) of the same compound?
Its TGI is 12500 nM.

And the GI50 (IGROV1 ovarian)?
Its GI50 is 679 nM.

And the TGI (IGROV1 ovarian)?
The TGI was 9690 nM.

What about the GI50 (K-562 leukemia) of the same compound?
Its GI50 is 252 nM.

What about the TGI (K-562 leukemia) of the same compound?
Its TGI is 13600 nM.

What about the GI50 (KM12 colon) of the same compound?
The GI50 was 274 nM.

What about the TGI (KM12 colon) of the same compound?
The TGI was 12100 nM.

What about the GI50 (LOX IMVI melanoma) of the same compound?
The GI50 was 528 nM.

What about the TGI (LOX IMVI melanoma) of the same compound?
The TGI was 8780 nM.

What about the GI50 (M14 melanoma) of the same compound?
The GI50 was 339 nM.

What about the TGI (M14 melanoma) of the same compound?
The TGI was 15900 nM.

And the GI50 (MALME-3M melanoma)?
The GI50 was 12600 nM.

And the TGI (MALME-3M melanoma)?
The TGI was 25200 nM.

What about the GI50 (MCF7 breast) of the same compound?
The GI50 was 502 nM.

What about the TGI (MCF7 breast) of the same compound?
Its TGI is 19800 nM.

What about the GI50 (MDA-MB-231 breast) of the same compound?
The GI50 was 650 nM.

And the TGI (MDA-MB-231 breast)?
Its TGI is 16800 nM.

What about the GI50 (MDA-MB-468 breast) of the same compound?
Its GI50 is 180 nM.

What about the TGI (MDA-MB-468 breast) of the same compound?
Its TGI is 387 nM.

And the GI50 (MOLT-4 leukemia)?
Its GI50 is 146 nM.

What about the TGI (MOLT-4 leukemia) of the same compound?
The TGI was 283 nM.

And the GI50 (NCI-H226 lung)?
The GI50 was 688 nM.

And the TGI (NCI-H226 lung)?
The TGI was 2660 nM.

What about the GI50 (NCI-H23 lung) of the same compound?
Its GI50 is 690 nM.

What about the TGI (NCI-H23 lung) of the same compound?
The TGI was 16500 nM.

What about the GI50 (NCI-H322M lung) of the same compound?
Its GI50 is 4440 nM.

What about the TGI (NCI-H322M lung) of the same compound?
The TGI was 19900 nM.

And the GI50 (NCI-H522 lung)?
Its GI50 is 202 nM.

And the TGI (NCI-H522 lung)?
Its TGI is 506 nM.

What about the GI50 (NCI/ADR-RES ovarian) of the same compound?
Its GI50 is 304 nM.

What about the TGI (NCI/ADR-RES ovarian) of the same compound?
The TGI was 16000 nM.

What about the GI50 (OVCAR-3 ovarian) of the same compound?
Its GI50 is 225 nM.

And the TGI (OVCAR-3 ovarian)?
The TGI was 823 nM.

And the GI50 (OVCAR-4 ovarian)?
The GI50 was 2260 nM.

What about the TGI (OVCAR-4 ovarian) of the same compound?
The TGI was 19800 nM.

And the GI50 (OVCAR-5 ovarian)?
The GI50 was 5320 nM.

And the TGI (OVCAR-5 ovarian)?
Its TGI is 19800 nM.

What about the GI50 (PC-3 prostate) of the same compound?
Its GI50 is 709 nM.

What about the TGI (PC-3 prostate) of the same compound?
Its TGI is 21100 nM.

And the GI50 (RPMI-8226 leukemia)?
The GI50 was 253 nM.

What about the TGI (RPMI-8226 leukemia) of the same compound?
Its TGI is 7320 nM.

What about the GI50 (RXF 393 renal) of the same compound?
Its GI50 is 207 nM.

What about the TGI (RXF 393 renal) of the same compound?
Its TGI is 1230 nM.

And the GI50 (SF-268 CNS)?
Its GI50 is 370 nM.

And the TGI (SF-268 CNS)?
Its TGI is 1770 nM.

What about the GI50 (SF-295 CNS) of the same compound?
The GI50 was 452 nM.

And the TGI (SF-295 CNS)?
The TGI was 16200 nM.

What about the GI50 (SF-539 CNS) of the same compound?
Its GI50 is 351 nM.

And the TGI (SF-539 CNS)?
Its TGI is 1500 nM.

And the GI50 (SK-MEL-2 melanoma)?
The GI50 was 459 nM.

And the TGI (SK-MEL-2 melanoma)?
The TGI was 4310 nM.

What about the GI50 (SK-MEL-28 melanoma) of the same compound?
Its GI50 is 778 nM.

And the TGI (SK-MEL-28 melanoma)?
Its TGI is 18600 nM.

What about the GI50 (SK-MEL-5 melanoma) of the same compound?
Its GI50 is 236 nM.

And the TGI (SK-MEL-5 melanoma)?
Its TGI is 12000 nM.

What about the GI50 (SK-OV-3 ovarian) of the same compound?
Its GI50 is 757 nM.

What about the TGI (SK-OV-3 ovarian) of the same compound?
The TGI was 16400 nM.

What about the GI50 (SN12C renal) of the same compound?
The GI50 was 632 nM.

What about the TGI (SN12C renal) of the same compound?
Its TGI is 14200 nM.

What about the GI50 (SNB-19 CNS) of the same compound?
Its GI50 is 726 nM.

What about the TGI (SNB-19 CNS) of the same compound?
The TGI was 15100 nM.

And the GI50 (SNB-75 CNS)?
The GI50 was 320 nM.

And the TGI (SNB-75 CNS)?
Its TGI is 1390 nM.

And the GI50 (SR leukemia)?
The GI50 was 103 nM.

And the TGI (SR leukemia)?
Its TGI is 238 nM.

What about the GI50 (SW-620 colon) of the same compound?
Its GI50 is 336 nM.

And the TGI (SW-620 colon)?
The TGI was 11100 nM.

And the GI50 (T-47D breast)?
Its GI50 is 794 nM.

What about the TGI (T-47D breast) of the same compound?
The TGI was 17700 nM.

What about the GI50 (TK-10 renal) of the same compound?
Its GI50 is 860 nM.

What about the TGI (TK-10 renal) of the same compound?
Its TGI is 10300 nM.

What about the GI50 (U251 glioblastoma) of the same compound?
Its GI50 is 453 nM.

What about the TGI (U251 glioblastoma) of the same compound?
The TGI was 12300 nM.

And the GI50 (UACC-257 melanoma)?
Its GI50 is 11400 nM.

What about the TGI (UACC-257 melanoma) of the same compound?
The TGI was 23500 nM.

What about the GI50 (UACC-62 melanoma) of the same compound?
Its GI50 is 334 nM.

What about the TGI (UACC-62 melanoma) of the same compound?
Its TGI is 12000 nM.

What about the GI50 (UO-31 renal) of the same compound?
The GI50 was 781 nM.

And the TGI (UO-31 renal)?
Its TGI is 2080 nM.
